Test results from patent publication US9637501B2, “Pyridin-3-yl acetic acid macrocycles as inhibitors of human immunodeficiency virus replication” (priority 2014, dated 2017).
Where two headings read alike, the source gives them in different places.

Experiments:
[1] = rcm bond, Hoveyda-Grubbs catalyst 2nd generation, 1,2-dichloroethane, 3 steps
[2] = test system: recombinant NL-RLuc virus (NL4-3 with Renilla Luciferase gene) in MT-2 cells; assay: Inhibition of HIV replication (NL-RLuc virus, luciferase readout in MT-2 cells); assay type: cell-based; settings: 5 days of incubation, 10% FBS
Excerpt: Inhibition of HIV Replication:
A recombinant NL-RLuc proviral clone was constructed in which a section of the nef gene from NL4-3 was replaced with the Renilla Luciferase gene. This virus is fully infectious and can undergo multiple cycles of replication in cell culture. In addition, the luciferous reporter provides a simple and easy method for quantitating the extent of virus growth and consequently, the antiviral activity of test compounds. The plasmid pNLRLuc contains the proviral NL-Rluc DNA cloned into pUC18 at the PvuII site. The NL-RLuc virus was prepared by transfection of 293T cells with the plasmid pNLRLuc. Transfections were performed using the LipofectAMINE PLUS kit from Invitrogen (Carlsbad, Calif.) according to the manufacturer and the virus generated was titered in MT-2 cells. For susceptibility analyses, the titrated virus was used to infect MT-2 cells in the presence of compound, and after 5 days of incubation, cells were processed and quantitated for virus growth by the amount of expressed luciferase. Assay media was RPMI 1640 supplemented with 10% heat inactivated fetal bovine serum (FBS), 100 units/ml penicillin G/100 units/ml streptomycin, 10 mM HEPES buffer pH 7.55 and 2 mM L-glutamine. The results from at least 2 experiments were used to calculate the EC50 values. Luciferase was quantitated using the Dual Luciferase kit from Promega (Madison, Wis.). Susceptibility of viruses to compounds was determined by incubation in the presence of serial dilutions of the compound. The 50% effective concentration (EC50) was calculated by using the exponential form of the median effect equation where (Fa)=1/[1+(ED50/drug conc.)^m] (Johnson V A, Byington R T. Infectivity Assay. In Techniques in HIV Research. ed. Aldovini A, Walker B D. 71-76. New York: Stockton Press. 1990).

Row | SMILES | EC50 [2] [µM] | EC50 ([2]; Renilla, NL43, 120 h) [µM] | further results
1 | Cc1nc(C)c([C@H](OC(C)(C)C)C(=O)O)c2c1-c1ccc(cc1)OC(c1ccc(Cl)cc1)CCCCOC1(C)CCN2CC1 (stereo partly shown) | – | – | ring closure, yield of all isomers ([1]; from C=CCOC1(C)CCN(c2c(-c3ccc(OC(CC=C)c4ccc(Cl)cc4)cc3)c(C)nc(C)c2[C@H](OC(C)(C)C)C(=O)OCC)CC1, 6.25 mM, 70.0 °C, 0.5 h): 59.1%
2 | Cc1nc(C)c([C@H](OC(C)(C)C)C(=O)O)c2c1-c1ccc(cc1)OC(c1ccccc1)CCCCOC1(C)CCN2CC1 (stereo partly shown) | – | – | ring closure, yield of all isomers ([1]; from C=CCOC1(C)CCN(c2c(-c3ccc(OC(CC=C)c4ccccc4)cc3)c(C)nc(C)c2[C@H](OC(C)(C)C)C(=O)OCC)CC1, 70.0 °C, 1.0 h): 63.8%
3 | Cc1nc(C)c([C@H](OC(C)(C)C)C(=O)O)c2c1-c1ccc(cc1)OC(c1ccccc1)CCCCOC1(C)CCN2CC1 (single isomer, unassigned) [Example 3] | 0.854 | – | –
4 | Cc1nc(C)c([C@H](OC(C)(C)C)C(=O)O)c2c1-c1ccc(cc1)OC(c1ccccc1)CCCCOC1(C)CCN2CC1 (single isomer, unassigned) [Example 4] | 0.349 | – | –
5 | Cc1nc(C)c([C@H](OC(C)(C)C)C(=O)O)c2c1-c1ccc(cc1)OC(c1ccc(Cl)cc1)CCCCOC1(C)CCN2CC1 (single isomer, unassigned) [Example 5] | – | 0.466 | –
6 | Cc1nc(C)c([C@H](OC(C)(C)C)C(=O)O)c2c1-c1ccc(cc1)OC(c1ccc(Cl)cc1)CCCCOC1(C)CCN2CC1 (single isomer, unassigned) [Example 6] | 0.496 | – | –
7 | Cc1cc(CN2CCCCCCOC3(C)CCN(CC3)c3c(c(C)nc(C)c3[C@H](OC(C)(C)C)C(=O)O)-c3ccc(cc3)C2)ccc1F [Example 1, (2S)-2-(tert-Butoxy)-2-{13-[(4-fluoro-3-methylphenyl)methyl]-4,6,21-trimethyl-20-oxa-1,5,13-triazatetracyclo[19.2.2.2^8,11.0^2,7]heptacosa-2,4,6,8,10,26-hexaen-3-yl}acetic acid] | – | 0.087 | ring closure, yield of all isomers ([1]; from C=CCCCN(Cc1ccc(-c2c(C)nc(C)c([C@H](OC(C)(C)C)C(=O)OCC)c2N2CCC(C)(OCC=C)CC2)cc1)Cc1ccc(F)c(C)c1, 70.0 °C, 0.83 h): 58.9%
8 | Cc1cc(CN2CCCCCOC3(C)CCN(CC3)c3c(c(C)nc(C)c3[C@H](OC(C)(C)C)C(=O)O)-c3ccc(cc3)C2)ccc1F [Example 2, (2S)-2-(tert-Butoxy)-2-{13-[(4-fluoro-3-methylphenyl)methyl]-4,6,20-trimethyl-19-oxa-1,5,13-triazatetracyclo[18.2.2.2^8,11.0^2,7]hexacosa-2,4,6,8,10,25-hexaen-3-yl}acetic acid] | – | 0.249 | ring closure, yield of all isomers ([1]; from C=CCOC1(C)CCN(c2c(-c3ccc(CN(CC/C=C\CC)Cc4ccc(F)c(C)c4)cc3)c(C)nc(C)c2[C@H](OC(C)(C)C)C(=O)OCC)CC1, 4.35 mM, 75.0 °C, 1.33 h): 17.2%
